Data: ChEMBL document CHEMBL1152855, “Regioselective synthesis of dispiro[1H-indene-2,3'-pyrrolidine-2',3''-[3H]indole]-1,2''(1''H)-diones of potential anti-tumor properties” (2009)

How the values were obtained:
Type in all cases: functional
[1] = system: MCF7; assay: Growth inhibition of human MCF7 cells at 10 uM after 48 hrs by sulforhodamine B assay; details: MCF7, 48 h, values are per cent of control
[2] = system: OVCAR-5; assay: Growth inhibition of human OVCAR5 cells at 10 uM after 48 hrs by sulforhodamine B assay; details: OVCAR-5, 48 h, values are per cent of control
[3] = system: NCI/ADR-RES; assay: Growth inhibition of human NCI/ADR-RES cells at 10 uM after 48 hrs by sulforhodamine B assay; details: values are per cent of control
[4] = system: CAKI-1; assay: Growth inhibition of human Caki1 cells at 10 uM after 48 hrs by sulforhodamine B assay; details: CAKI-1, 48 h, values are per cent of control
[5] = system: SK-OV-3; assay: Growth inhibition of human SKOV3 cells at 10 uM after 48 hrs by sulforhodamine B assay; details: SK-OV-3, 48 h, values are per cent of control
[6] = system: SK-MEL-5; assay: Growth inhibition of human SK-MEL-5 cells at 10 uM after 48 hrs by sulforhodamine B assay; details: SK-MEL-5, 48 h, values are per cent of control
[7] = system: LOX IMVI; assay: Growth inhibition of human LOXIMVI cells at 10 uM after 48 hrs by sulforhodamine B assay; details: values are per cent of control
[8] = system: NCI-H460; assay: Growth inhibition of human NCI-H460 cells at 10 uM after 48 hrs by sulforhodamine B assay; details: NCI-H460, 48 h, values are per cent of control
[9] = system: NCI-H522; assay: Growth inhibition of human NCI-H522 cells at 10 uM after 48 hrs by sulforhodamine B assay; details: NCI-H522, 48 h, values are per cent of control
[10] = system: UACC-257; assay: Growth inhibition of human UACC257 cells at 10 uM after 48 hrs by sulforhodamine B assay; details: UACC-257, 48 h, values are per cent of control
[11] = system: MDA-MB-231; assay: Growth inhibition of human MDA-MB-231 cells at 10 uM after 48 hrs by sulforhodamine B assay; details: MDA-MB-231, 48 h, values are per cent of control
[12] = system: SF-539; assay: Growth inhibition of human SF539 cells at 10 uM after 48 hrs by sulforhodamine B assay; details: SF-539, 48 h, values are per cent of control
[13] = system: UO-31; assay: Growth inhibition of human UO31 cells at 10 uM after 48 hrs by sulforhodamine B assay; details: UO-31, 48 h, values are per cent of control
[14] = system: 786-0; assay: Growth inhibition of human 786-0 cells at 10 uM after 48 hrs by sulforhodamine B assay; details: 786-0, 48 h, values are per cent of control
[15] = system: SR; assay: Growth inhibition of human SR cells at 10 uM after 48 hrs by sulforhodamine B assay; details: values are per cent of control
[16] = system: HOP-92; assay: Growth inhibition of human HOP92 cells at 10 uM after 48 hrs by sulforhodamine B assay; details: HOP-92, 48 h, read-out: GI
[17] = system: SK-MEL-28; assay: Growth inhibition of human SK-MEL-28 cells at 10 uM after 48 hrs by sulforhodamine B assay; details: SK-MEL-28, 48 h, values are per cent of control
[18] = system: MOLT-4; assay: Growth inhibition of human MOLT4 cells at 10 uM after 48 hrs by sulforhodamine B assay; details: MOLT-4, 48 h, values are per cent of control
[19] = system: HT-29; assay: Growth inhibition of human HT-29 cells at 10 uM after 48 hrs by sulforhodamine B assay; details: HT-29, 48 h, values are per cent of control
[20] = system: NCI-H226; assay: Growth inhibition of human NCI-H226 cells at 10 uM after 48 hrs by sulforhodamine B assay; details: NCI-H226, 48 h, values are per cent of control
[21] = system: U-251; assay: Growth inhibition of human U251 cells at 10 uM after 48 hrs by sulforhodamine B assay; details: U-251, 48 h, values are per cent of control
[22] = system: OVCAR-4; assay: Growth inhibition of human OVCAR4 cells at 10 uM after 48 hrs by sulforhodamine B assay; details: OVCAR-4, 48 h, values are per cent of control
[23] = system: DU-145; assay: Growth inhibition of human DU145 cells at 10 uM after 48 hrs by sulforhodamine B assay; details: DU-145, 48 h, values are per cent of control
[24] = system: HOP-62; assay: Growth inhibition of human HOP62 cells at 10 uM after 48 hrs by sulforhodamine B assay; details: HOP-62, 48 h, values are per cent of control
[25] = system: Rattus norvegicus; assay: Antiinflammatory activity against carrageenan-induced paw edema in Wister albino rat assessed as inhibition of edema at 50 mg/kg, ip administered 1 hr prior to carrageenan challenge measured after 3 hrs relative to control; details: route intraperitoneal
[26] = system: M14; assay: Growth inhibition of human M14 cells at 10 uM after 48 hrs by sulforhodamine B assay; details: M14, 48 h, values are per cent of control
[27] = system: SF-268; assay: Growth inhibition of human SF268 cells at 10 uM after 48 hrs by sulforhodamine B assay; details: SF-268, 48 h, values are per cent of control
[28] = system: NCI-H23; assay: Growth inhibition of human NCI-H23 cells at 10 uM after 48 hrs by sulforhodamine B assay; details: NCI-H23, 48 h, values are per cent of control
[29] = system: Rattus norvegicus; assay: Antiinflammatory activity against carrageenan-induced paw edema in Wister albino rat assessed as inhibition of edema at 50 mg/kg, ip administered 1 hr prior to carrageenan challenge measured after 2 hrs relative to control; details: route intraperitoneal
[30] = system: NCI-H322M; assay: Growth inhibition of human NCI-H322M cells at 10 uM after 48 hrs by sulforhodamine B assay; details: values are per cent of control
[31] = system: PC-3; assay: Growth inhibition of human PC3 cells at 10 uM after 48 hrs by sulforhodamine B assay; details: PC-3, 48 h, values are per cent of control
[32] = system: SN12C; assay: Growth inhibition of human SN12C cells at 10 uM after 48 hrs by sulforhodamine B assay; details: values are per cent of control
[33] = system: K562; assay: Growth inhibition of human K562 cells at 10 uM after 48 hrs by sulforhodamine B assay; details: K562, 48 h, values are per cent of control
[34] = system: CCRF-CEM; assay: Growth inhibition of human CCRF-CEM cells at 10 uM after 48 hrs by sulforhodamine B assay; details: values are per cent of control
[35] = system: EKVX; assay: Growth inhibition of human EKVX cells at 10 uM after 48 hrs by sulforhodamine B assay; details: values are per cent of control
[36] = system: HCT-15; assay: Growth inhibition of human HCT15 cells at 10 uM after 48 hrs by sulforhodamine B assay; details: HCT-15, 48 h, values are per cent of control
[37] = system: T47D; assay: Growth inhibition of human T47D cells at 10 uM after 48 hrs by sulforhodamine B assay; details: values are per cent of control
[38] = system: UACC-62; assay: Growth inhibition of human UACC62 cells at 10 uM after 48 hrs by sulforhodamine B assay; details: UACC-62, 48 h, values are per cent of control
[39] = system: SK-MEL-2; assay: Growth inhibition of human SK-MEL-2 cells at 10 uM after 48 hrs by sulforhodamine B assay; details: SK-MEL-2, 48 h, read-out: GI

Row | SMILES | growth, % of control at 10 µM [1] | growth, % of control at 10 µM [2] | growth, % of control at 10 µM [3] | growth, % of control at 10 µM [4] | growth, % of control at 10 µM [5] | growth, % of control at 10 µM [6] | growth, % of control at 10 µM [7] | growth, % of control at 10 µM [8] | growth, % of control at 10 µM [9] | growth, % of control at 10 µM [10] | growth, % of control at 10 µM [11] | growth, % of control at 10 µM [12] | growth, % of control at 10 µM [13] | growth, % of control at 10 µM [14] | growth, % of control at 10 µM [15] | inhibition of growth at 10 µM [16] | growth, % of control at 10 µM [17] | growth, % of control at 10 µM [18] | growth, % of control at 10 µM [19] | growth, % of control at 10 µM [20] | also measured
1 | [3H]C([3H])([3H])N1C(=O)[C@@]2(c3ccccc31)N(C)C[C@@H](c1ccc(OC)cc1)[C@@]21Cc2ccccc2C1=O | 100% | 97.7% | 96% | 91.1% | 99.4% | 88.1% | 78.5% | 95.4% | 87% | 88.7% | 94.3% | 99.9% | 75.5% | 88% | 125% | 47.1% | 101% | 107% | 66.9% | 78.7% | growth, % of control at 10 µM [21]: 88.4%; growth, % of control at 10 µM [22]: 78.8%; growth, % of control at 10 µM [23]: 128%; growth, % of control at 10 µM [24]: 88.2%; inhibition in vivo at 50 mg/kg [25]: 3.3%; growth, % of control at 10 µM [26]: 94.1%; growth, % of control at 10 µM [27]: 108%; growth, % of control at 10 µM [28]: 84.5%; inhibition in vivo at 50 mg/kg [29]: 20.2%; growth, % of control at 10 µM [30]: 124%; growth, % of control at 10 µM [31]: 58.4%; growth, % of control at 10 µM [32]: 89.1%; growth, % of control at 10 µM [33]: 85.2%; growth, % of control at 10 µM [34]: 72.1%; growth, % of control at 10 µM [35]: 67.3%; growth, % of control at 10 µM [36]: 89.1%; growth, % of control at 10 µM [37]: 93.3%; growth, % of control at 10 µM [38]: 63.1%; inhibition of growth at 10 µM [39]: -6.92%
2 | [3H]N1C(=O)[C@@]2(c3ccccc31)N(C)C[C@@H](c1cccs1)[C@@]21Cc2ccccc2C1=O | 109% | 98.8% | 97.4% | 106% | 96.2% | 114% | 80% | 109% | 92.3% | 65% | 78.3% | 109% | 95.8% | 111% | 60.3% | 72.9% | 117% | 67.7% | 99.6% | 96.2% | growth, % of control at 10 µM [21]: 100%; growth, % of control at 10 µM [22]: 93%; growth, % of control at 10 µM [23]: 92%; growth, % of control at 10 µM [24]: 110%; inhibition in vivo at 50 mg/kg [25]: 32.6%; growth, % of control at 10 µM [26]: 103%; growth, % of control at 10 µM [27]: 93.6%; growth, % of control at 10 µM [28]: 92%; inhibition in vivo at 50 mg/kg [29]: 39.1%; growth, % of control at 10 µM [30]: 98.9%; growth, % of control at 10 µM [31]: 73%; growth, % of control at 10 µM [32]: 99.6%; growth, % of control at 10 µM [33]: 93.7%; growth, % of control at 10 µM [34]: 91.4%; growth, % of control at 10 µM [35]: 97.5%; growth, % of control at 10 µM [36]: 103%; growth, % of control at 10 µM [37]: 96%; growth, % of control at 10 µM [38]: 82%; inhibition of growth at 10 µM [39]: 6.58%
